Assay results reported in PubChem BioAssay AID248 (DTP/NCI, 2004).
“And” between values parts separate entries of the source, which are not always exact repeats. Equal entries are not always repeated. Inconclusive results and toxic doses are left out. No stated cut-off is given here; in the data, active means T/C of 150% or more; inactive means T/C below 125%.

Tested on: L1210 leukemia ip in BDF1 mice, survival T/C
Assay: NCI In Vivo Anticancer Drug Screen. Data for tumor model L1210 Leukemia (intraperitoneal) in B6D2F1 (BDF1) mice
Settings: endpoint: mean survival time, higher = longer survival
Procedure, shortened: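 Transplanted-tumor mice were given test agent; controls received vehicle only. Survival readings from the two groups were divided (treated over control).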

[1] = dose: 25.0 mg/kg/injection, schedule: Q01DX009 (ip), vehicle: saline
[2] = dose: 100.0 mg/kg/injection, schedule: Q01DX001 (ip), vehicle: saline
[3] = dose: 200.0 mg/kg/injection, schedule: Q01DX001 (ip), vehicle: saline
[4] = dose: 400.0 mg/kg/injection, schedule: Q01DX001 (ip), vehicle: saline
[5] = dose: 100.0 mg/kg/injection, schedule: Q01DX009 (ip), vehicle: Klucel (hydroxypropylcellulose) (HPC)
[6] = dose: 200.0 mg/kg/injection, schedule: Q01DX009 (ip), vehicle: Klucel (hydroxypropylcellulose) (HPC)
[7] = dose: 400.0 mg/kg/injection, schedule: Q01DX009 (ip), vehicle: Klucel (hydroxypropylcellulose) (HPC)
[8] = dose: 100.0 mg/kg/injection, schedule: Q04DX003 (ip), vehicle: saline with Tween-80
[9] = dose: 100.0 mg/kg/injection, schedule: Q01DX001 (ip), vehicle: carboxymethylcellulose (CMC)
[10] = dose: 200.0 mg/kg/injection, schedule: Q01DX001 (ip), vehicle: carboxymethylcellulose (CMC)
[11] = dose: 100.0 mg/kg/injection, schedule: Q04DX003 (ip), vehicle: Klucel (hydroxypropylcellulose) (HPC)
[12] = dose: 200.0 mg/kg/injection, schedule: Q04DX003 (ip), vehicle: Klucel (hydroxypropylcellulose) (HPC)
[13] = dose: 400.0 mg/kg/injection, schedule: Q04DX003 (ip), vehicle: Klucel (hydroxypropylcellulose) (HPC)
[14] = dose: 50.0 mg/kg/injection, schedule: Q01DX001 (ip), vehicle: saline
[15] = dose: 100.0 mg/kg/injection, schedule: Q04DX002 (ip), vehicle: saline with Tween-80
[16] = dose: 200.0 mg/kg/injection, schedule: Q04DX002 (ip), vehicle: saline with Tween-80
[17] = dose: 400.0 mg/kg/injection, schedule: Q04DX002 (ip), vehicle: saline with Tween-80

Measured: T/C

O=[N+]([O-])c1c(Cl)nc2ccccn12
inactive: dose: 3.13 mg/kg/injection, schedule: Q01DX009 (ip), vehicle: saline 93 % of control | dose: 5.0 mg/kg/injection, schedule: Q01DX001 (ip), vehicle: saline 100 % of control | dose: 6.25 mg/kg/injection, schedule: Q01DX009 (ip), vehicle: saline 95 % of control | dose: 10.0 mg/kg/injection, schedule: Q01DX001 (ip), vehicle: saline 98 % of control | dose: 12.5 mg/kg/injection, schedule: Q01DX009 (ip), vehicle: saline 93 % of control | dose: 20.0 mg/kg/injection, schedule: Q01DX001 (ip), vehicle: saline 100 % of control | [1] 93 % of control | dose: 40.0 mg/kg/injection, schedule: Q01DX001 (ip), vehicle: saline 96 % of control | dose: 80.0 mg/kg/injection, schedule: Q01DX001 (ip), vehicle: saline 93 % of control | [2] 101 % of control | [3] 110 % of control | [4] 108 % of control

CN1CCC2(CC1)C(=O)N(c1ccccc1)C(=O)C2c1ccccc1 (stereo not drawn)
inactive: dose: 100.0 mg/kg/injection, schedule: Q01DX001 (ip), vehicle: Klucel (hydroxypropylcellulose) (HPC) 102 % of control | dose: 200.0 mg/kg/injection, schedule: Q01DX001 (ip), vehicle: Klucel (hydroxypropylcellulose) (HPC) 98 % of control

CC1CCCCN1C(=O)Nc1ccc(Cl)cc1[N+](=O)[O-] (stereo not drawn)
inactive: [5] 100 % of control | [6] 91 % of control | [7] 92 % of control

CCOC(=O)C(=O)C1CCCCC1=O (stereo not drawn)
inactive: [2] 108 % of control | [3] 108 % of control

O=C(Nc1ccc(F)cc1)c1cccc(C(=O)Nc2ccc(F)cc2)c1
inactive: dose: 25.0 mg/kg/injection, schedule: Q04DX003 (ip), vehicle: saline with Tween-80 96 % of control | dose: 50.0 mg/kg/injection, schedule: Q04DX003 (ip), vehicle: saline with Tween-80 93 % of control | [8] 95 % of control and 87 % of control

CC(C)OC(C(=O)O)c1ccccc1 (stereo not drawn)
inactive: [9] 101 % of control | [10] 101 % of control

NC(=O)c1ccccc1OC(=O)Nc1ccccc1F
inactive: dose: 100.0 mg/kg/injection, schedule: Q01DX009 (ip), vehicle: saline with Tween-80 106 % of control | dose: 200.0 mg/kg/injection, schedule: Q01DX009 (ip), vehicle: saline with Tween-80 107 % of control | dose: 400.0 mg/kg/injection, schedule: Q01DX009 (ip), vehicle: saline with Tween-80 107 % of control

CCCCCCCCCCCCCCCCNC(=S)NCCCCCCCCCCCCCCCC
inactive: dose: 25.0 mg/kg/injection, schedule: Q04DX002 (ip), vehicle: Klucel (hydroxypropylcellulose) (HPC) 93 % of control | dose: 50.0 mg/kg/injection, schedule: Q04DX002 (ip), vehicle: Klucel (hydroxypropylcellulose) (HPC) 90 % of control | dose: 100.0 mg/kg/injection, schedule: Q04DX002 (ip), vehicle: Klucel (hydroxypropylcellulose) (HPC) 102 % of control | [11] 95 % of control | [12] 101 % of control | [13] 88 % of control

CCOC(=O)c1ccc(NS(C)(=O)=O)cc1
inactive: [5] 95 % of control | [11] 114 % of control | [6] 95 % of control | [12] 102 % of control | [7] 92 % of control | [13] 100 % of control

COC(=O)c1n[nH]c(C)c1N=NN1CCOCC1
inactive: dose: 75.0 mg/kg/injection, schedule: Q01DX001 (ip), vehicle: saline 105 % of control | dose: 150.0 mg/kg/injection, schedule: Q01DX001 (ip), vehicle: saline 103 % of control | dose: 300.0 mg/kg/injection, schedule: Q01DX001 (ip), vehicle: saline 105 % of control

CCN(CC)CCCC#N
inactive: [14] 100 % of control | [2] 105 % of control | [3] 102 % of control

c1cncc(Nc2c3ccccc3nc3ccccc23)c1
inactive: [2] 97 % of control | [3] 99 % of control | [4] 94 % of control

COc1ccc2nc3cc(Cl)ccc3c(Cl)c2c1
inactive: dose: 50.0 mg/kg/injection, schedule: Q04DX003 (ip), vehicle: carboxymethylcellulose (CMC) 87 % of control | [9] 97 % of control | dose: 100.0 mg/kg/injection, schedule: Q04DX003 (ip), vehicle: carboxymethylcellulose (CMC) 92 % of control | [10] 90 % of control | dose: 200.0 mg/kg/injection, schedule: Q04DX003 (ip), vehicle: carboxymethylcellulose (CMC) 91 % of control | dose: 400.0 mg/kg/injection, schedule: Q01DX001 (ip), vehicle: carboxymethylcellulose (CMC) 100 % of control

N#CCc1[nH]cnc1C#N
inactive: dose: 100.0 mg/kg/injection, schedule: Q04DX003 (ip), vehicle: water 100 % of control and 111 % of control and 115 % of control | dose: 200.0 mg/kg/injection, schedule: Q04DX003 (ip), vehicle: water 95 % of control and 115 % of control | dose: 300.0 mg/kg/injection, schedule: Q04DX003 (ip), vehicle: water 113 % of control | dose: 400.0 mg/kg/injection, schedule: Q04DX003 (ip), vehicle: water 100 % of control (2×) and 122 % of control

NC(=O)C1(N2CCCC2)CCN(Cc2ccccc2)CC1
inactive: dose: 50.0 mg/kg/injection, schedule: Q01DX009 (ip), vehicle: Klucel (hydroxypropylcellulose) (HPC) 94 % of control | [5] 97 % of control | [11] 96 % of control | [6] 90 % of control | [12] 93 % of control

CCOC(=O)OCc1ccccc1
inactive: [15] 94 % of control | [16] 109 % of control | [17] 102 % of control

Cc1ccccc1C1=CCCCCC1
inactive: [14] 93 % of control | [2] 93 % of control | [3] 98 % of control | [4] 107 % of control

CC(C)=CCC(C#N)(CCN(C)C)c1cccc2ccccc12 (stereo not drawn)
inactive: [1] 98 % of control | dose: 50.0 mg/kg/injection, schedule: Q01DX009 (ip), vehicle: saline 101 % of control | dose: 100.0 mg/kg/injection, schedule: Q01DX009 (ip), vehicle: saline 94 % of control | dose: 100.0 mg/kg/injection, schedule: Q04DX003 (ip), vehicle: saline 98 % of control

O=c1[nH]c2nc(SCc3ccccc3)n(Cc3ccccc3)c2c(=O)n1OS(=O)(=O)c1ccccc1
inactive: [15] 101 % of control and 108 % of control | [8] 96 % of control | [16] 94 % of control and 96 % of control | dose: 200.0 mg/kg/injection, schedule: Q04DX003 (ip), vehicle: saline with Tween-80 94 % of control | [17] 94 % of control and 96 % of control | dose: 400.0 mg/kg/injection, schedule: Q04DX003 (ip), vehicle: saline with Tween-80 91 % of control

COC1/C=C/OC2(C)Oc3c(C)c(O)c4c(O)c(c(/C=N/NC5CCCCCCCCCCCCCC5)c(O)c4c3C2=O)NC(=O)/C(C)=C\C=C\C(C)C(O)C(C)C(O)C(C)C(OC(C)=O)C1C (stereo not drawn)
inactive: dose: 100.0 mg/kg/injection, schedule: Q01DX003 (ip), vehicle: saline with Tween-80 95 % of control | dose: 200.0 mg/kg/injection, schedule: Q01DX003 (ip), vehicle: saline with Tween-80 95 % of control | dose: 400.0 mg/kg/injection, schedule: Q01DX003 (ip), vehicle: saline with Tween-80 102 % of control
